Where two headings read alike, the source gives them in different places.
Target: T1, full length AKT E17K (Homo sapiens, UniProt P31749, E17K)
T1 construct: host or cells: HEK-293 (ATCC CRL-1573)
Experiment: NanoBRET Target Engagement (TE) Assay
Type: cell-based
Conditions: read-out: AKT1 E17K IC50
From the text: The NanoBRET™ Target Engagement (TE) Intracellular Kinase Assays are based on the NanoBRET™ System (Promega Corporation), an energy transfer technique designed to measure molecular proximity in living cells. The NanoBRET™ TE Assays measure the apparent affinity of test compounds by competitive displacement of the NanoBRET™ tracer compound, which is a cell permeable molecule engineered to be reversibly bound to a NanoLuc® luciferase-kinase fusion expressed in cells. For compound screening, when a test compound binds to the selected kinase, the BRET signal is attenuated. […] All cells were evaluated for viability prior to transfection and optimization of the transfection was done prior to experimentation. […] Following transfection, cells were washed and resuspended in Opti-MEM. NanoBRET assays were performed in white, 384-well plates (Corning) at a density of […]. All example compounds were prepared as concentrated stock solutions in DMSO (Sigma-Aldrich). Compounds are dissolved in DMSO to make 10 mM stock solution. […] A Labcyte ECHO 550 compound dispenser was used to facilitate compound transfer directly to cells. Cells were equilibrated for 2 hr with energy transfer probes and example compound prior to BRET measurements. […] For target engagement analysis, the energy transfer probes were added to the cells at concentrations optimized for the target in question (AKT E17K). Following compound incubation, NanoBRET NanoGlo Substrate (Promega Cat #N157D) and Extracellular Nanoluc Inhibitor (Promega Cat #N235C) was added according to the manufacturer's recommended protocol, and luminescence was measured on Envision Reader (Perkin Elmer) Multimode Luminometer equipped with 450 nm BPfilter (donor) and 600 nm LPfilter (acceptor), using 0.5 s integration time. Milli-BRET units (mBU) are calculated by multiplying the raw BRET values by 1000. Apparent tracer affinity values (EC50) were determined using the sigmoidal dose-response (variable slope).
Competitive displacement data were then plotted and data were fit to determine the EC50 value for each example compound.

[1] = competitive displacement of tracer in cells
[2] = competitive tracer displacement in living cells

T1 sequence (P31749 whole entry E17K): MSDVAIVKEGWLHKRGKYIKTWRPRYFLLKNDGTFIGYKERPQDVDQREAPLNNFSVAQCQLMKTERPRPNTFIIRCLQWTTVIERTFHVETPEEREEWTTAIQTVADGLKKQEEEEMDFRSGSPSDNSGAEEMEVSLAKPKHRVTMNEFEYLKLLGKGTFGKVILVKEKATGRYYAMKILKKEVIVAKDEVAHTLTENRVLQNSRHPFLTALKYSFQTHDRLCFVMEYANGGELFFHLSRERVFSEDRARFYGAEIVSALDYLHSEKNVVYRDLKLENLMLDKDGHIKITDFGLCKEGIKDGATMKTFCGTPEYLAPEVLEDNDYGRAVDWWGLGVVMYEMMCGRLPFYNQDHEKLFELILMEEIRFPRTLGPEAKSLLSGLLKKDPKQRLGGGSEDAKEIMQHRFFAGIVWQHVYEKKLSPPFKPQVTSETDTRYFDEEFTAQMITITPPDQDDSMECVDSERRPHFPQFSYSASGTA

| SMILES | IC50 [1] | IC50 [2] |
| --- | --- | --- |
| N#Cc1nccc(NC2CCN(Cc3ccc(-n4c(-c5cccnc5N)nc5ccc([C@@H]6CCOC6)nc54)cc3)CC2)n1 (single isomer, unassigned) [Example 506] | < 15 nM | – |
| N#Cc1nccc(NC2CCN(Cc3ccc(-n4c(-c5cccnc5N)nc5ccc([C@H]6CCOC6)nc54)cc3)CC2)n1 (single isomer, unassigned) [Example 507] | < 15 nM | – |
| N#Cc1ccc(OC2CCN(Cc3ccc(-n4c(-c5cccnc5N)nc5cccnc54)cc3)CC2)nc1 [Example 1, 6-((1-(4-(2-(2-Aminopyridin-3-yl)-3H-imidazo[4,5-b]pyridin-3-yl)benzyl)piperidin-4-yl)oxy)nicotinonitrile] | – | 600 to 10000 nM |
| N#Cc1ccc(OC2CCN(Cc3ccc(-n4c(-c5cccnc5N)nc5ccc(-c6ccccc6)nc54)cc3)CC2)nc1 [Example 2, 6-((1-(4-(2-(2-Aminopyridin-3-yl)-5-phenyl-3H-imidazo[4,5-b]pyridin-3-yl)benzyl)piperidin-4-yl)oxy)nicotinonitrile] | – | 60 to 600 nM |
| N#Cc1ccc(OC2CCN(Cc3ccc(-n4c(-c5cccnc5N)nc5cc(-c6ccccc6)cnc54)cc3)CC2)nc1 [Example 3, 6-((1-(4-(2-(2-aminopyridin-3-yl)-6-phenyl-3H-imidazo[4,5-b]pyridin-3-yl)benzyl)piperidin-4-yl)oxy)nicotinonitrile] | – | 600 to 10000 nM |
| N#Cc1cccc(OC2CCN(Cc3ccc(-n4c(-c5cccnc5N)nc5cccnc54)cc3)CC2)n1 [Example 4, 6-((1-(4-(2-(2-Aminopyridin-3-yl)-3H-imidazo[4,5-b]pyridin-3-yl)benzyl)piperidin-4-yl)oxy)picolinonitrile] | – | 600 to 10000 nM |
| N#Cc1ccnc(OC2CCN(Cc3ccc(-n4c(-c5cccnc5N)nc5cccnc54)cc3)CC2)c1 [Example 5, 2-((1-(4-(2-(2-aminopyridin-3-yl)-3H-imidazo[4,5-b]pyridin-3-yl)benzyl)piperidin-4-yl)oxy)isonicotinonitrile] | – | 600 to 10000 nM |
| N#Cc1cccnc1OC1CCN(Cc2ccc(-n3c(-c4cccnc4N)nc4cccnc43)cc2)CC1 [Example 6, 2-((1-(4-(2-(2-aminopyridin-3-yl)-3H-imidazo[4,5-b]pyridin-3-yl)benzyl)piperidin-4-yl)oxy)nicotinonitrile] | – | 600 to 10000 nM |
| N#Cc1cccc(OC2CCN(Cc3ccc(-n4c(-c5cccnc5N)nc5ccc(-c6ccccc6)nc54)cc3)CC2)n1 [Example 7, 6-((1-(4-(2-(2-Aminopyridin-3-yl)-5-phenyl-3H-imidazo[4,5-b]pyridin-3-yl)benzyl)piperidin-4-yl)oxy)picolinonitrile] | – | 60 to 600 nM |
| N#Cc1ccnc(OC2CCN(Cc3ccc(-n4c(-c5cccnc5N)nc5ccc(-c6ccccc6)nc54)cc3)CC2)c1 [Example 8, 2-((1-(4-(2-(2-Aminopyridin-3-yl)-5-phenyl-3H-imidazo[4,5-b]pyridin-3-yl)benzyl)piperidin-4-yl)oxy)isonicotinonitrile] | – | 600 to 10000 nM |
| N#Cc1cccnc1OC1CCN(Cc2ccc(-n3c(-c4cccnc4N)nc4ccc(-c5ccccc5)nc43)cc2)CC1 [Example 9, 2-((1-(4-(2-(2-Aminopyridin-3-yl)-5-phenyl-3H-imidazo[4,5-b]pyridin-3-yl)benzyl)piperidin-4-yl)oxy)nicotinonitrile] | – | 60 to 600 nM |
| N#Cc1cccc(OC2CCN(Cc3ccc(-n4c(-c5cccnc5N)nc5cc(-c6ccccc6)cnc54)cc3)CC2)n1 [Example 10, 6-((1-(4-(2-(2-Aminopyridin-3-yl)-6-phenyl-3H-imidazo[4,5-b]pyridin-3-yl)benzyl)piperidin-4-yl)oxy)picolinonitrile] | – | 600 to 10000 nM |
| N#Cc1ccnc(OC2CCN(Cc3ccc(-n4c(-c5cccnc5N)nc5cc(-c6ccccc6)cnc54)cc3)CC2)c1 [Example 11, 2-((1-(4-(2-(2-Aminopyridin-3-yl)-6-phenyl-3H-imidazo[4,5-b]pyridin-3-yl)benzyl)piperidin-4-yl)oxy)isonicotinonitrile] | – | 600 to 10000 nM |
| N#Cc1cccnc1OC1CCN(Cc2ccc(-n3c(-c4cccnc4N)nc4cc(-c5ccccc5)cnc43)cc2)CC1 [Example 12, 2-((1-(4-(2-(2-Aminopyridin-3-yl)-6-phenyl-3H-imidazo[4,5-b]pyridin-3-yl)benzyl)piperidin-4-yl)oxy)nicotinonitrile] | – | 600 to 10000 nM |
| N#Cc1cc(N2CCN(Cc3ccc(-n4c(-c5cccnc5N)nc5cccnc54)cc3)CC2)ccn1 [Example 13, 4-(4-(4-(2-(2-Aminopyridin-3-yl)-3H-imidazo[4,5-b]pyridin-3-yl)benzyl)piperazin-1-yl)picolinonitrile] | – | 600 to 10000 nM |
| N#Cc1ccc(N2CCN(Cc3ccc(-n4c(-c5cccnc5N)nc5cccnc54)cc3)CC2)cn1 [Example 14, 5-(4-(4-(2-(2-Aminopyridin-3-yl)-3H-imidazo[4,5-b]pyridin-3-yl)benzyl)piperazin-1-yl)picolinonitrile] | – | 600 to 10000 nM |
| N#Cc1cccc(N2CCN(Cc3ccc(-n4c(-c5cccnc5N)nc5cccnc54)cc3)CC2)n1 [Example 15, 6-(4-(4-(2-(2-Aminopyridin-3-yl)-3H-imidazo[4,5-b]pyridin-3-yl)benzyl)piperazin-1-yl)picolinonitrile] | – | 600 to 10000 nM |
| N#Cc1cncc(N2CCN(Cc3ccc(-n4c(-c5cccnc5N)nc5cccnc54)cc3)CC2)c1 [Example 16, 5-(4-(4-(2-(2-Aminopyridin-3-yl)-3H-imidazo[4,5-b]pyridin-3-yl)benzyl)piperazin-1-yl)nicotinonitrile] | – | 600 to 10000 nM |
| N#Cc1ccnc(N2CCN(Cc3ccc(-n4c(-c5cccnc5N)nc5cccnc54)cc3)CC2)c1 [Example 17, 2-(4-(4-(2-(2-Aminopyridin-3-yl)-3H-imidazo[4,5-b]pyridin-3-yl)benzyl)piperazin-1-yl)isonicotinonitrile] | – | 600 to 10000 nM |
| N#Cc1nccc(N2CCN(Cc3ccc(-n4c(-c5cccnc5N)nc5cccnc54)cc3)CC2)n1 [Example 18, 4-(4-(4-(2-(2-Aminopyridin-3-yl)-3H-imidazo[4,5-b]pyridin-3-yl)benzyl)piperazin-1-yl)pyrimidine-2-carbonitrile] | – | 60 to 600 nM |
| N#Cc1cncc(N2CCN(Cc3ccc(-n4c(-c5cccnc5N)nc5cccnc54)cc3)CC2)n1 [Example 19, 6-(4-(4-(2-(2-Aminopyridin-3-yl)-3H-imidazo[4,5-b]pyridin-3-yl)benzyl)piperazin-1-yl)pyrazine-2-carbonitrile] | – | 600 to 10000 nM |
| N#Cc1ccnc(N2CCN(Cc3ccc(-n4c(-c5cccnc5N)nc5cccnc54)cc3)CC2)n1 [Example 20, 2-(4-(4-(2-(2-aminopyridin-3-yl)-3H-imidazo[4,5-b]pyridin-3-yl)benzyl)piperazin-1-yl)pyrimidine-4-carbonitrile] | – | 600 to 10000 nM |
| N#Cc1cc(N2CCN(Cc3ccc(-n4c(-c5cccnc5N)nc5cccnc54)cc3)CC2)ncn1 [Example 21, 6-(4-(4-(2-(2-Aminopyridin-3-yl)-3H-imidazo[4,5-b]pyridin-3-yl)benzyl)piperazin-1-yl)pyrimidine-4-carbonitrile] | – | 60 to 600 nM |
| N#Cc1cnnc(N2CCN(Cc3ccc(-n4c(-c5cccnc5N)nc5cccnc54)cc3)CC2)c1 [Example 22, 6-(4-(4-(2-(2-Aminopyridin-3-yl)-3H-imidazo[4,5-b]pyridin-3-yl)benzyl)piperazin-1-yl)pyridazine-4-carbonitrile] | – | 600 to 10000 nM |
| N#Cc1cc(C(=O)NC2CCN(Cc3ccc(-n4c(-c5cccnc5N)nc5cccnc54)cc3)CC2)ccn1 [Example 23, N-(1-(4-(2-(2-aminopyridin-3-yl)-3H-imidazo[4,5-b]pyridin-3-yl)benzyl)piperidin-4-yl)-2-cyanoisonicotinamide] | – | 600 to 10000 nM |
| N#Cc1ccc(C(=O)NC2CCN(Cc3ccc(-n4c(-c5cccnc5N)nc5cccnc54)cc3)CC2)cn1 [Example 24, N-(1-(4-(2-(2-Aminopyridin-3-yl)-3H-imidazo[4,5-b]pyridin-3-yl)benzyl)piperidin-4-yl)-6-cyanonicotinamide] | – | 600 to 10000 nM |
| N#Cc1ccc(C(=O)NC2CCN(Cc3ccc(-n4c(-c5cccnc5N)nc5cccnc54)cc3)CC2)nc1 [Example 25, N-(1-(4-(2-(2-Aminopyridin-3-yl)-3H-imidazo[4,5-b]pyridin-3-yl)benzyl)piperidin-4-yl)-5-cyanopicolinamide] | – | 600 to 10000 nM |
| N#Cc1cncc(C(=O)NC2CCN(Cc3ccc(-n4c(-c5cccnc5N)nc5cccnc54)cc3)CC2)c1 [Example 26, N-(1-(4-(2-(2-aminopyridin-3-yl)-3H-imidazo[4,5-b]pyridin-3-yl)benzyl)piperidin-4-yl)-5-cyanonicotinamide] | – | 600 to 10000 nM |
| N#Cc1ncccc1C(=O)NC1CCN(Cc2ccc(-n3c(-c4cccnc4N)nc4cccnc43)cc2)CC1 [Example 27, N-(1-(4-(2-(2-Aminopyridin-3-yl)-3H-imidazo[4,5-b]pyridin-3-yl)benzyl)piperidin-4-yl)-2-cyanonicotinamide] | – | 600 to 10000 nM |

Source: US12209087B2, “AKT1 modulators” (Alterome Therapeutics, Inc., priority 2022, dated 2025)
